The text below walks through data of patent US12351634B2, “Use of cilengitide for ameliorating cardiac fibrosis occurring in response to myocardial infarction” (priority 2018, dated 2025).

The subject of data set [1] is mice subjected to MI via a complete LAD ligation. The data set is described as follows: Myocardial infarction by LAD ligation, cilengitide vs vehicle. It counts as in vivo, mouse.
Protocol: Male C57BL/6J mice (Janvier labs) or PW1-reporter (PW1^nLacZ) mice received Cilengitide at 10 mg/kg/day (Adooq bioscience, ref: A12372) or vehicle i.p. for 14 days. LAD surgery was performed 7 days after starting cilengitide or vehicle administration. Mice were divided in 4 groups: MI-CIL (Cilengitide), MI-Veh (vehicle), Ctrl-CIL and Ctrl-Veh. At Day 14, animals were euthanatized and hearts were carefully collected, incubated for 2 h at 4° C. in 4% Formaldehyde solution (Ted Pella) then 24 h in 30% sucrose/PBS solution before OCT embedding and frozen in liquid nitrogen vapours. Echocardiographic measurements were taken at days 0 and 7 to assess cardiac function.
When comparing more than 2 groups, quantitative data were analyzed using one-way ANOVA and pair wise comparisons with Tukey's test for multiple comparisons. The Mann Whitney U test was used for comparing continuous variables between 2 groups. A log rank (Mantel-Cox) test was used to compare survival between groups. P-values <0.05 were considered significant.
Mice were pre-treated for 7 days with cilengitide or vehicle and were then subjected to MI via a complete LAD ligation. The mice were further daily treated with cilengitide or vehicle for additional 7 days before final evaluation of cardiac function and remodeling (FIG. 1a).
Data set [2] has as its system integrin αV, including αVβ1, αVβ3 and αVβ5. As to conditions: cited from earlier work.
For data set [3], the system named is FACS-isolated cardiac PW1+ cells. The data set is described as follows: Pharmacological inhibition of PW1+ cells in vitro, Q-PCR on fibrosis markers. It counts as cell-based, mouse. To be noted: cilengitide 300 nM, 1000 nM vs vehicle, treated for 48 h. The method, then: Animals were injected with heparin (100 UI/25 g) before euthanasia. The right atrium was carefully nicked with surgical scissors and the heart was perfused with 10 mL of PBS (Gibco) through the right ventricle to remove the blood. After collecting the heart, the atria were trimmed away and the ventricles were finely sliced (0.5-1 mm^3). Cardiac cells were dissociated at 37° C. for 30 min by enzymatic digestion with 480 U/mL collagenase II (Worthington) in DPBS (GIBCO). The digestion was stopped with DMEM (Life Technologies) supplemented into 10% FBS (Sigma) and 1% penicillin/streptomycin (P/S; Life Technologies) and the cell suspension was filtered through 100 μm Falcon cell strainer before centrifugation at 416 g for 10 min at 4° C. The cell pellet was re-suspended in 500 μL of Red Blood Cell Lysing (RBCL) Buffer to lyse red blood cells at RT for 30 sec. DPBS was added before 10 min centrifugation in same conditions as above. The cell pellet was then re-suspended in 300 μL of HBSS (Gibco) containing 1% FBS (HBSS-1% FBS) to perform immunostaining for 45 min on ice in dark. The list of antibodies used is reported in supplemental table 1. After incubation, HBSS-1% FBS was added and cells centrifuged at 416 g for 10 min at 4° C. to perform PW1+ cells staining. For this, 300 μL of HBSS-1% FBS containing 60 μM of 5-Dodecanoylaminofluorescein Di-β-D-Galactopyranoside (C12FDG, ThermoFisher Scientific) a substrate for β-gal detection by flow cytometry was added on cells then incubated in dark at 37° C. for 1 h under constant agitation. Reaction was stopped by the addition of HBSS-1% FBS. After cell centrifugation, the pellet was re-suspended in 200 μL of HBSS-1% FBS, the viability dye propidium iodide (Sigma) was added and the samples were filtered through a 50 μm Filcon (BD bioscience) just before the analysis.
FACS sorted PW1^+ or PW1^− cells were plated at the density of 25 000 cell per cm^2 in culture plates coated with attachment factor (ThermoFisher Scientific). Cells were left to adhere overnight with 0.5 mL of growth medium (DMEM 10% FBS 1% P/S). The culture medium was changed the day after. At day 5, culture media was changed and supplemented with 0, 300 nM, or 1 μM of cilengitide. At day 6, medium was removed, and cells were washed twice with PBS. Cells were then lysed and RNA extracted followed by an RT-PCR. A Q-PCR was finally performed on selected fibrosis markers.
To test this hypothesis, we first investigated whether CD51 pharmacological inhibition affects the expression of profibrotic genes in freshly FACS-isolated cardiac PW1^+ cells. These cells were seeded and cultured for 4 days and then treated for 48 h with growing concentrations of cilengitide or vehicle. […]

Data set [4] deals with cardiac PW1+ cells in PW1nLacZ-reporter mouse post-MI hearts. Nature of the data set: Short-term lineage tracing of cardiac PW1+ cells in post-MI heart sections. It counts as in vivo. To be noted: cardiac sections of post-MI (7 days) hearts, vs vehicle. The protocol:
Male 8 weeks-old C57BL/6 or PW1-reporter (PW1^nLacZ) mice were anesthetized in an induction chamber with 2% isoflurane mixed with 1.0 L/min 100% 02 and placed on a supine position on a heating pad to maintain body temperature. The mice were intubated with endotracheal tube and then connected to a rodent ventilator (180 breaths/min and a tidal volume of 200 μl). During surgical procedure anesthesia is maintained at 1.5-2% isoflurane with O2. The chest was accessed from the left side through the intercostal space and the pericardium incised. The left anterior descending coronary artery (LAD) was exposed and encircled with a 8.0 prolene suture at the apex of the left ventricle. The suture was briefly snared to confirm the ligation by blanching the arterial region. Mice were analyzed 7 days after LAD permanent ligation.
Male C57BL/6J mice (Janvier labs) or PW1-reporter (PW1^nLacZ) mice received Cilengitide at 10 mg/kg/day (Adooq bioscience, ref: A12372) or vehicle i.p. for 14 days. LAD surgery was performed 7 days after starting cilengitide or vehicle administration. Mice were divided in 4 groups: MI-CIL (Cilengitide), MI-Veh (vehicle), Ctrl-CIL and Ctrl-Veh. […]

[5] abbreviates: sham animals (no MI), cilengitide 10 mg/kg/day i.p., data not shown.

As for `CC(C)[C@H]1C(=O)N[C@@H](CCCN=C(N)N)C(=O)NCC(=O)N[C@@H](CC(=O)O)C(=O)N[C@H](Cc2ccccc2)C(=O)N1C` [cilengitide, 2-[(2S,5R,8S,11S)-5-benzyl-11-{3-[(diaminomethylidene)amino]propyl}-7-methyl-3,6,9,12,15-pentaoxo-8-(propan-2-yl)-1,4,7,10,13-pentaazacyclopentadecan-2-yl]acetic acid], the survival entry in data set [1] (7 days after MI, cilengitide 10 mg/kg/day i.p. for 14 days, started 7 days before LAD ligation, vs vehicle, p<0.05 log-rank) was “significant improvement”. Moreover, the “cardiac function as measured by left ventricular ejection fraction” value in data set [1] (7 days after MI, cilengitide 10 mg/kg/day i.p., vs vehicle) was “significant increase”. The same compound gave an infarct size in data set [1] (7 days after MI, masson trichrome, digital image quantification, 10 mg/kg/day i.p., vehicle 56.8±14.9%, p=0.0008) of 38.8±7.9%. Also, the “interstitial fibrosis measured in the remote myocardial area” value in data set [1] (7 days after MI, picrosirius red, 10 mg/kg/day i.p., vehicle 36.8±13.1%, p<0.0001) turned out to be 15.9±10.4%. The “cardiac rupture (adverse outcome)” value in data set [1] (post-MI mice under cilengitide treatment) is “did not observe”. In data set [1] (setting [5]), the “cardiac fibrosis in sham animals” value is on record as “not associated with any changes”, the “cardiac function in sham animals” value is recorded as “not associated with any changes” and the “survival in sham animals” value was “not associated with any changes”. Also, in data set [2], the “inhibiting activity against the integrin αV” value is given as “strong inhibiting activity”. Further, in data set [3], the Colla1 expression result is “not affected”, the “aSma (or Acta2) expression” value is “significant down-regulation”, the mmp2 expression result is listed as “significant down-regulation” and the tgfrb1 expression entry is recorded as “significant down-regulation”. Moreover, the “number of β-gal+ cells that did not express vimentin” value in data set [4] (p<0.001) is on record as “significant increase”. Besides, the “proportion of cells co-expressing β-gal and vimentin” value in data set [4] (p<0.05) is recorded as “significant reduction”.
